The record followed here is paper PMC6349854, “GLUT1 and GLUT3 involvement in anthocyanin gastric transport- Nanobased targeted approach” (Scientific Reports, 2019).

Data set [1] concerns MKN-28 cells. Nature of the data set: Transepithelial transport of anthocyanins through MKN-28 gastric barrier (apical to basolateral). Type of data set: in vitro ADME, human. As to conditions: for paracellular transport efficiency: 4 °C; for paracellular transport efficiency / transport efficiency at 180 minutes: apical pH 5.0, basolateral pH 7.4, anthocyanin 500 µM; for transport efficiency at 180 minutes: 37 °C. The procedure: (§1) Transepithelial transport experiments were performed using a similar procedure from the one described elsewhere. […] Cells were cultured at 37 °C in an atmosphere of 5% CO2 and the medium was changed every two days.
(§2) After this treatment, media was removed and cells were washed with Hanks’ medium (HBSS), pH 7.4 at the basolateral side and with HBSS pH 5.0 at the apical side. Anthocyanin solution (500 µM) in HBSS pH 5.0 was added to the apical side of the cells and HBSS containing 2% fetal bovine serum free of polyphenols was added to the basolateral compartment. Transepithelial transport was followed as a function of time, at 4 °C and 37 °C. Samples were taken from the basolateral side and replaced by fresh medium. The samples (150 µL) were acidified with HCl 6 M to a final concentration of 1% and frozen at −18 °C until HPLC analysis.

For data set [2], the system named is Mv3glc transport through MKN-28 barrier. Nature of the data set: Effect of transporter inhibitors on anthocyanin transport through MKN-28 barrier. Type of data set: cell-based, human. The procedure: as §1, §2

`COc1cc(-c2[o+]c3cc(O)cc(O)c3cc2O[C@@H]2O[C@H](CO)[C@@H](O)[C@H](O)[C@H]2O)cc(OC)c1O` [Mv3glc, Malvidin-3-O-glucoside]: in data set [1], the paracellular transport efficiency entry is reported as “below 2%”. Moreover, the “transport efficiency at 180 minutes” value in data set [1] (180 min) was ~ 10%. Further, the “inhibitory effect on transport when both transporters inhibited simultaneously” value in data set [1] (GLUT1 and GLUT3 silenced together (AuNP@GLUT1 + 3), 24 h + 24 h) is “much more pronounced and additive”. Also, the “relative reduction of transport” value in data set [1] (after silencing of GLUT1 or GLUT3 by nanoconjugates 24 h + 24 h, 180 min, versus respective control (AuNP@PEG)) is “around 25%”.
Turning to `COc1cc(-c2[o+]c3cc(O)cc(O)c3cc2O[C@@H]2O[C@H](CO)[C@@H](O)[C@H](O)[C@H]2O)ccc1O` [Pn3glc, Peonidin-3-O-glucoside], the paracellular transport efficiency result in data set [1] is “below 2%”. Also, the “transport efficiency at 180 minutes” value in data set [1] (180 min) was ~ 10%.
Turning to `CCCN(CCC)S(=O)(=O)c1ccc(C(=O)O)cc1` [Probenecid], the “effect on Mv3glc transport” value in data set [2] (inhibitor 50 µM, apical pH 5.0, basolateral pH 7.4) is reported as “no effect”.
Take `C=C1[C@@H](C)[C@H]2[C@H](Cc3ccccc3)NC(=O)[C@]23OC(=O)/C=C/[C@H](O)CCC[C@@H](C)C/C=C/[C@H]3[C@@H]1O` [cytochalasin B]: in data set [2] (cytochalasin B 50 µM added simultaneously with AuNP@GLUT1 + 3), the “inhibitory effect on anthocyanin transport” value is reported as “inhibitory effect was higher”.
